Measurements taken from US20260001841A1, “PREPARATION OF STABLE PSILOCIN SALTS, ESTERS AND CONJUGATES AND USES THEREOF” (LOBE SCIENCES LTD., priority 2022, published 2026).
“And” between values parts separate entries of the source, which are not always exact repeats. Equal entries are not always repeated. “Also recorded” adds a separate entry of the source.

Assays:
[1] = Stability studies on psilocin mucate capsule (appearance, HPLC assay and impurities, TM-022-0392); assay type: physicochemical; conditions: for Appearance, Packaging: Labeled, amber glass bottle with white closure containing 15 partially filled white opaque capsules / Appearance, Product: White to light brown powder partially filling white opaque capsules / Total Impurities TM-22-0392 / Impurities TM-22-0392, individual impurities / Assay TM-22-0392 (% Label Claim): capsule; for Assay TM-22-0392 (% Label Claim): specification 90.0-110.0%
Method: Additional stability studies were performed on psilocin mucate (also known as psilocin mucic acid salt or conjugate or psilocin galactaric acid salt or conjugate) capsule.
Appearance was evaluated by viewing of the sample on a watchglass over a black and white background.
Assay conditions for Test/Method TM-022-0392 assessing stability and impurities were as follows: • Mobile phase: MPA: 945 mL water, 5 mL H3PO4, PH to 5.7 with NaOH; MPB: Acetonitrile • Diluent: 80:20 Water:MeOH • Standard: 0.4 mg/mL Psilocin Mucic RS in Diluent • Sample: 0.4 mg/mL Psilocin Mucic API in Diluent HPLC Conditions are depicted in Table 3.
Calculations were against a bracketing external standard.
Identity of psilocin mucate was verified by ultraviolet (UV) assessment, wherein the UV spectrum of the main peak in the standard matched the UV spectrum of the main peak in the sample and by retention time wherein the retention time ratio was 0.98-1.02.

healthy subjects = test: Phase one single-dose study of psilocin mucic acid conjugate capsules: psychiatrist mood assessment and mini mental state examination (MMSE); conditions: single oral capsule, 4.05 mg conjugate equivalent to 2 mg psilocin
[2] = psilocin from psilocybin dosing; cited from earlier work
[3] = doses as low as 5 mg psilocybin (about 2 mg psilocin); cited from earlier work

Molecule	Time demonstrated to be stable [1]	Appearance, Packaging: Labeled, amber glass bottle with white closure containing 15 partially filled white opaque capsules ([1]; 7 Months)	Appearance, Product: White to light brown powder partially filling white opaque capsules ([1]; 7 Months)	Total Impurities TM-22-0392 ([1]; 7 Months) [%]	Impurities TM-22-0392, individual impurities ([1]; 7 Months, all impurities)	Assay TM-22-0392 (% Label Claim) ([1]; 7 Months) [%]	Appearance, Packaging: Labeled, amber glass bottle with white closure containing 15 partially filled white opaque capsules ([1]; Initial)	Appearance, Product: White to light brown powder partially filling white opaque capsules ([1]; Initial)	Total Impurities TM-22-0392 ([1]; Initial) [%]	Impurities TM-22-0392, individual impurities ([1]; Initial, impurity at RRT1.12)	Assay TM-22-0392 (% Label Claim) ([1]; Initial) [%]	FEELING STATUS (mood assessed by psychiatrist) (healthy subjects; one entry per subject (01-10))	MMSE score (healthy subjects; one value per subject (01-10), scores expected below 25 with a hallucinogenic substance)	Estimated dose-normalized bioavailability [2] [%]	Adverse psychological effects reported [3]
psilocin mucate	at least 7 months	Conforms	Conforms	<0.05	All <0.05%	101.7	Conforms	Conforms	0.08	RRT1.12/0.08%	100.8	Feel calm, less thoughts, happier mood; also recorded: Euphoric, better mood, it helps with life stress; also recorded: Euphories, better mood, sleepy, feel time is slower; also recorded: Sleepy, better thoughts, less worried in general; also recorded: Did not feel change in mood but feeling cold extremities; also recorded: More relaxed, want to drink sweet tea, better mood; also recorded: Better mood, feels hyper sexual; also recorded: Felt high mood, now they feel in good way,, they would love to; also recorded: Less anxious, better mood, increase their appetite; also recorded: Feel little beet happier, better energy	28 (3×) and 27 (2×) and 30 (3×) and 29 (2×)		
CN(C)CCc1c[nH]c2cccc(OP(=O)(O)O)c12 [psilocybin, Psilocybin]														52.7	hallucinogenic effects coupled with increased anxiety
